Measurements: ChEMBL document CHEMBL1201862, “PubChem BioAssay data set” (2004)
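Five concentrations, 48 hours, 96-well plates. Abbreviation: GI50, concentration required for 50% inhibition of growth.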 Calls of active or inactive are those of the source. Rule as the data show it: active = GI50 up to about 1.1 µM and inactive = higher.

Legend:
Test in all cases: NCI-60 cell line screen, 48 h
SW-620 = system: SW-620
786-0 = system: 786-0
MCF7 = system: MCF7
HOP-92 = system: HOP-92
CAKI-1 = system: CAKI-1
U-251 = system: U-251
NCI-H226 = system: NCI-H226
TK-10 = system: TK-10
MDA-N = system: MDA-N
NCI-H522 = system: NCI-H522
NCI-H23 = system: NCI-H23
UACC-62 = system: UACC-62
RPMI-8226 = system: RPMI-8226
A498 = system: A498
HCT-116 = system: HCT-116
PC-3 = system: PC-3
UO-31 = system: UO-31
MOLT-4 = system: MOLT-4
SR = system: SR
Hs-578T = system: Hs-578T

Measured: GI50

C/C(=C\c1ccccc1)C(=O)NCc1ccc(C(=O)NCCC(C)C)cc1
inactive: SW-620 > 100 µM | 786-0 38.3 µM | MCF7 > 100 µM | HOP-92 49.5 µM | CAKI-1 93.8 µM | U-251 86.7 µM | NCI-H226 40.5 µM | TK-10 > 100 µM | MDA-N > 100 µM | NCI-H522 > 100 µM | NCI-H23 88.3 µM | UACC-62 15.6 µM | RPMI-8226 > 100 µM | A498 27 µM | HCT-116 65 µM | PC-3 > 100 µM | UO-31 37.8 µM | MOLT-4 > 100 µM

O=C(c1cccnc1)N1N=C(c2ccc(Cl)cc2)CC1(O)c1cc(F)c(Cl)cc1Cl (stereo unspecified)
inactive: SW-620 22.2 µM | 786-0 17.9 µM | SR 8.85 µM | HOP-92 17.5 µM | CAKI-1 28.5 µM | U-251 14.3 µM | NCI-H226 11.6 µM | TK-10 41.1 µM | MDA-N 16.7 µM | NCI-H522 19.5 µM | NCI-H23 18.5 µM | RPMI-8226 12.2 µM | HCT-116 8.3 µM | PC-3 12.9 µM | UO-31 15.9 µM | Hs-578T 29.4 µM | MOLT-4 6.46 µM

CCCCc1ccc(Nc2nc(O)c3ncn(COCCO)c3n2)cc1
inactive: SW-620 > 100 µM | 786-0 44.1 µM | SR 88.3 µM | MCF7 > 100 µM | HOP-92 > 100 µM | U-251 57.4 µM | NCI-H226 > 100 µM | TK-10 > 100 µM | MDA-N > 100 µM | NCI-H522 > 100 µM | NCI-H23 93.8 µM | UACC-62 > 100 µM | RPMI-8226 43.9 µM | A498 > 100 µM | HCT-116 > 100 µM | UO-31 > 100 µM | Hs-578T > 100 µM | MOLT-4 56 µM

O=C1c2ccccc2-n2c1nc1ccc(Cl)cc1c2=O
inactive: SW-620 > 100 µM | 786-0 26.1 µM | SR 77.4 µM | MCF7 83.9 µM | HOP-92 45.3 µM | CAKI-1 33 µM | U-251 34.5 µM | NCI-H226 > 100 µM | TK-10 77.4 µM | MDA-N 16.6 µM | NCI-H23 66.2 µM | UACC-62 16.3 µM | RPMI-8226 1.36 µM | A498 > 100 µM | HCT-116 71.4 µM | PC-3 > 100 µM | UO-31 59.4 µM | MOLT-4 78.3 µM

N#CCCC(CC#N)N1CCN(C(CC#N)CCC#N)CC1 (stereo unspecified)
inactive: SW-620 > 100 µM | 786-0 > 100 µM | SR > 100 µM | MCF7 > 100 µM | CAKI-1 > 100 µM | U-251 > 100 µM | NCI-H226 > 100 µM | TK-10 > 100 µM | MDA-N > 100 µM | NCI-H522 > 100 µM | NCI-H23 > 100 µM | UACC-62 > 100 µM | RPMI-8226 > 100 µM | HCT-116 > 100 µM | PC-3 > 100 µM | UO-31 > 100 µM | MOLT-4 > 100 µM

COc1nc(N(C)C)nc2c1[n+](C)cn2C [HETEROMINE A]
inactive: SW-620 57.5 µM | 786-0 48.3 µM | HOP-92 > 100 µM | CAKI-1 > 100 µM | U-251 15.6 µM | NCI-H226 > 100 µM | TK-10 > 100 µM | MDA-N 94.6 µM | NCI-H522 17.1 µM | NCI-H23 22.4 µM | UACC-62 > 100 µM | RPMI-8226 6.08 µM | A498 > 100 µM | HCT-116 77.8 µM | PC-3 > 100 µM | UO-31 > 100 µM | Hs-578T 40.3 µM | MOLT-4 97.9 µM

CC1(C)S[C@H](CN)N[C@H]1C(=O)OC(c1ccccc1)c1ccccc1
inactive: SW-620 43.6 µM | 786-0 48.5 µM | SR 27.9 µM | MCF7 61.9 µM | HOP-92 16.7 µM | CAKI-1 34.4 µM | U-251 33 µM | NCI-H226 > 100 µM | TK-10 61.7 µM | NCI-H522 31.9 µM | NCI-H23 48.3 µM | UACC-62 22.9 µM | RPMI-8226 21.6 µM | A498 20 µM | HCT-116 33.8 µM | PC-3 25.5 µM | UO-31 22.3 µM | Hs-578T 83.2 µM | MOLT-4 24.3 µM

CC1=CC(=O)/C(=C/NC(=O)NN)C(=O)O1
inactive: SW-620 > 100 µM | 786-0 > 100 µM | MCF7 > 100 µM | HOP-92 > 100 µM | CAKI-1 > 100 µM | U-251 > 100 µM | TK-10 > 100 µM | MDA-N > 100 µM | NCI-H522 > 100 µM | NCI-H23 > 100 µM | UACC-62 > 100 µM | HCT-116 > 100 µM | PC-3 > 100 µM | UO-31 > 100 µM | Hs-578T > 100 µM | MOLT-4 > 100 µM
